A value given as a limit tells only on which side of the number the result lay.

For one assay, the system named is HEK293. As to the kind of experiment: MTT assay, cytotoxicity to normal cell line. The note with it: Homo sapiens, HEK293; MTT, 48 h drug exposure, mean ± SD; normal cell line. The format is cell-based, human. As for the experimental part:
(§1) Human cancer cell lines BEL-7402, A549, MCF-7, PC-3M, and normal renal cell line HEK293 were bought from the BeNa Culture Collection (Beijing, China). BEL7402, A549, and PC-3M were cultured in RPMI 1640 medium (Gibco, Carlsbad, CA, USA). MCF-7 and HEK293 were cultured in the DMEM medium (Gibco, CA, USA). The medium was supplemented with 10% fetal bovine serum (FBS) (CLARK, San Diego, CA, USA), 100 U/mL penicillin, and 0.1 mg/mL streptomycin (Beyotime, Nanjing, China). The cells were incubated in 5% CO2 at 37 °C.
(§2) The MTT assay was employed to assess the inhibitory effect of each compound on cell growth. A549, PC-3M, MCF-7, BEL-7402, and HEK293 cells in the logarithmic growth phase were seeded in 96-well culture plates at an inoculum density of 5 × 10^4 cells/mL. After overnight incubation at 37 °C in a 5% CO2 atmosphere, the cells fully adhered to the surface. Different concentrations of sample solutions (0, 3.125, 6.25, 12.5, 25, 50, 100 μmol/L) were added (100 μL) to treat the cells. After 48 h of drug treatment, 10 μL of a 5 mg/mL MTT solution was added to each well and incubated for 4 h at 37 °C. The supernatant was then discarded, and 150 μL of DMSO was added to dissolve the formazan. The mixture was shaken at room temperature for 15 min, and the absorbance (D) value was measured at 490 nm using a Microplate Reader (HBS-ScanY, Nanjing, China). The drug IC50 values were calculated using GraphPad Prism (v10.0). Each cell viability experiment was performed in triplicate.
(Tetrazolium assays rely on reduction of a dye to a coloured formazan, in cell work by metabolically active cells.)

The subject of a further assay is PC-3M. The experiment in a line: MTT assay, antiproliferative activity. The format is cell-based. The note with it: Homo sapiens, 48 h drug exposure, mean ± SD. The protocol: as §1, §2
Another assay concerns MCF-7. As to the kind of experiment: MTT assay, antiproliferative activity. As to conditions: Homo sapiens, MCF7, 48 h drug exposure, mean ± SD. The format is cell-based. As for the experimental part: as §1, §2
A further assay relates to A549. As to the kind of experiment: MTT assay, antiproliferative activity. The format is cell-based. The note with it: Homo sapiens, 48 h drug exposure, mean ± SD. As for the experimental part: as §1, §2
The next assay deals with BEL-7402. As to the kind of experiment: MTT assay, antiproliferative activity. The format is cell-based. As to conditions: Homo sapiens, 48 h drug exposure, mean ± SD. The protocol: as §1, §2

Take `COc1ccc(-c2oc3c(CC=C(C)C)c(OC(=O)CCCCCC[P+](c4ccccc4)(c4ccccc4)c4ccccc4)cc(O)c3c(=O)c2O)cc1` [Mito-ICT-2]: the IC50 (commonly the point on the concentration scale where inhibition reaches its midpoint) is 53.7 ± 5.15 µM with HEK293; 27.8 ± 1.74 µM with PC-3M; 23.7 ± 2.24 µM with MCF-7; 10.7 ± 1.09 µM in the assay with A549; 3.43 ± 0.91 µM in the assay with BEL-7402.
On the same counts, the results for `COc1ccc(-c2oc3c(CC=C(C)C)c(OC(=O)CCCCCCCCCCBr)cc(O)c3c(=O)c2O)cc1` [Compound 4] are greater than 100 µM, 76 ± 4.69 µM, greater than 100 µM, greater than 100 µM and greater than 100 µM.
With `CCCCCCCCCCC(=O)Oc1cc(O)c2c(=O)c(O)c(-c3ccc(OC)cc3)oc2c1CC=C(C)C` [Compound 8], the IC50 with HEK293, in the assay on PC-3M, with MCF-7, in the assay on A549 and with BEL-7402 was greater than 100 µM in each case.
Turning to `COc1ccc(-c2oc3c(CC=C(C)C)c(OC(=O)CCCCCCCC[P+](c4ccccc4)(c4ccccc4)c4ccccc4)cc(O)c3c(=O)c2O)cc1` [Mito-ICT-3], the IC50 with HEK293 amounted to 55 ± 3.92 µM; with PC-3M, 20.6 ± 2.06 µM; with MCF-7 it was 22.5 ± 1.78 µM; in the assay on A549 it was 13.7 ± 0.92 µM; in the assay with BEL-7402 it was 3.85 ± 0.69 µM.
On the same counts, the results for `COc1cccc2c1C(=O)c1c(O)c3c(c(O)c1C2=O)C[C@@](O)(C(=O)CO)C[C@@H]3O[C@H]1C[C@H](N)[C@H](O)[C@H](C)O1` [DOX, doxorubicin, reference compound] are greater than 100 µM, 0.24 ± 0.11 µM, 2.44 ± 0.81 µM, 6.88 ± 0.62 µM and 3.23 ± 0.64 µM.
As to `COc1ccc(-c2oc3c(CC=C(C)C)c(OC(=O)CCCCCCBr)cc(O)c3c(=O)c2O)cc1` [Compound 2], the IC50 was greater than 100 µM in the assay with HEK293; 76.1 ± 4.44 µM with PC-3M; 42.1 ± 5.47 µM in the assay on MCF-7; greater than 100 µM in the assay on A549; 40.6 ± 5.5 µM in the assay on BEL-7402.
On to `COc1ccc(-c2oc3c(CC=C(C)C)c(OC(=O)CCCC[P+](c4ccccc4)(c4ccccc4)c4ccccc4)cc(O)c3c(=O)c2O)cc1` [Mito-ICT-1], for which the IC50 with HEK293 was 47 ± 2.91 µM; with PC-3M, 33.6 ± 2.53 µM; in the assay on MCF-7, 10.7 ± 0.35 µM; with A549, 21.1 ± 2.67 µM; with BEL-7402, 2.85 ± 0.7 µM.
The corresponding values for `CCCCC(=O)Oc1cc(O)c2c(=O)c(O)c(-c3ccc(OC)cc3)oc2c1CC=C(C)C` [Compound 5] are 77.2 ± 5.13 µM, 60.2 ± 3.88 µM, 48.9 ± 1.42 µM, 97.8 ± 6.4 µM and 39.9 ± 2.06 µM.
Regarding `O=c1[nH]cc(F)c(=O)[nH]1` [Compound 5-FU, 5-fluorouracil, reference compound], the IC50 was greater than 100 µM in the assay on HEK293; 58.7 ± 2.64 µM in the assay with PC-3M; 13.5 ± 2.78 µM in the assay on MCF-7; 86.2 ± 7.94 µM with A549; 39 ± 1.32 µM in the assay with BEL-7402.
In the case of `CCCCCCCCC(=O)Oc1cc(O)c2c(=O)c(O)c(-c3ccc(OC)cc3)oc2c1CC=C(C)C` [Compound 7], the IC50 is greater than 100 µM with HEK293; greater than 100 µM with PC-3M; greater than 100 µM in the assay on MCF-7; greater than 100 µM in the assay with A549; 74.6 ± 4.83 µM in the assay on BEL-7402.
Turning to `CCCCCCC(=O)Oc1cc(O)c2c(=O)c(O)c(-c3ccc(OC)cc3)oc2c1CC=C(C)C` [Compound 6], the IC50 with HEK293 was greater than 100 µM; with PC-3M, greater than 100 µM; in the assay with MCF-7 it was 45.6 ± 3.02 µM; with A549 it was greater than 100 µM; in the assay on BEL-7402, 40.6 ± 5.17 µM.
Consider `COc1ccc(-c2oc3c(CC=C(C)C)c(OC(=O)CCCCBr)cc(O)c3c(=O)c2O)cc1` [Compound 1], for which the IC50 turned out to be 46.8 ± 1.82 µM with HEK293; 44.5 ± 2.15 µM in the assay on PC-3M; 25.8 ± 1.07 µM in the assay on MCF-7; 35.8 ± 3.57 µM in the assay with A549; 47.8 ± 2.65 µM in the assay on BEL-7402.
`COc1ccc(-c2oc3c(CC=C(C)C)c(O)cc(O)c3c(=O)c2O)cc1` [ICT, Icaritin]: the IC50 with HEK293 was determined as 43.2 ± 3.05 µM; with PC-3M it was 63.6 ± 2.67 µM; with MCF-7, 25.7 ± 1.89 µM; in the assay on A549, 43.1 ± 1.93 µM; in the assay with BEL-7402, 21.8 ± 2.42 µM.
On the same counts, the results for `COc1ccc(-c2oc3c(CC=C(C)C)c(OC(=O)CCCCCCCCBr)cc(O)c3c(=O)c2O)cc1` [Compound 3] are greater than 100 µM, greater than 100 µM, greater than 100 µM, greater than 100 µM and greater than 100 µM.

The values above are taken from paper PMC12029982, “The Mechanism of a Novel Mitochondrial-Targeted Icaritin Derivative in Regulating Apoptosis of BEL-7402 Cells Based on the SIRT3 and CypD-Mediated ROS/p38 MAPK Signaling Pathway” (Molecules, 2025).
